{"source": "patent US8039639B2", "about": "“Kinase inhibitors and methods of use thereof” (Array BioPharma Inc., priority 2006, dated 2011)", "key": {"[1]": {"target": "T1, CYP3A4 (Homo sapiens, UniProt P08684)", "T1 construct": "using pooled human liver microsomes (n=1); from tissue; host or cells: pooled human liver microsomes", "assay": "CYP inhibition assay (LC/MS, pooled human liver microsomes)", "assay_type": "in vitro ADME", "settings": "n=1"}, "[2]": {"target": "T2, CYP2C19 (Homo sapiens, UniProt P33261)", "T2 construct": "using pooled human liver microsomes (n=1); from tissue; host or cells: pooled human liver microsomes", "assay": "CYP inhibition assay (LC/MS, pooled human liver microsomes)", "assay_type": "in vitro ADME", "settings": "n=1, read-out: CYPC19 IC50"}, "[3]": {"target": "hERG (Homo sapiens, UniProt Q12809)", "sequence (Q12809 whole entry)": "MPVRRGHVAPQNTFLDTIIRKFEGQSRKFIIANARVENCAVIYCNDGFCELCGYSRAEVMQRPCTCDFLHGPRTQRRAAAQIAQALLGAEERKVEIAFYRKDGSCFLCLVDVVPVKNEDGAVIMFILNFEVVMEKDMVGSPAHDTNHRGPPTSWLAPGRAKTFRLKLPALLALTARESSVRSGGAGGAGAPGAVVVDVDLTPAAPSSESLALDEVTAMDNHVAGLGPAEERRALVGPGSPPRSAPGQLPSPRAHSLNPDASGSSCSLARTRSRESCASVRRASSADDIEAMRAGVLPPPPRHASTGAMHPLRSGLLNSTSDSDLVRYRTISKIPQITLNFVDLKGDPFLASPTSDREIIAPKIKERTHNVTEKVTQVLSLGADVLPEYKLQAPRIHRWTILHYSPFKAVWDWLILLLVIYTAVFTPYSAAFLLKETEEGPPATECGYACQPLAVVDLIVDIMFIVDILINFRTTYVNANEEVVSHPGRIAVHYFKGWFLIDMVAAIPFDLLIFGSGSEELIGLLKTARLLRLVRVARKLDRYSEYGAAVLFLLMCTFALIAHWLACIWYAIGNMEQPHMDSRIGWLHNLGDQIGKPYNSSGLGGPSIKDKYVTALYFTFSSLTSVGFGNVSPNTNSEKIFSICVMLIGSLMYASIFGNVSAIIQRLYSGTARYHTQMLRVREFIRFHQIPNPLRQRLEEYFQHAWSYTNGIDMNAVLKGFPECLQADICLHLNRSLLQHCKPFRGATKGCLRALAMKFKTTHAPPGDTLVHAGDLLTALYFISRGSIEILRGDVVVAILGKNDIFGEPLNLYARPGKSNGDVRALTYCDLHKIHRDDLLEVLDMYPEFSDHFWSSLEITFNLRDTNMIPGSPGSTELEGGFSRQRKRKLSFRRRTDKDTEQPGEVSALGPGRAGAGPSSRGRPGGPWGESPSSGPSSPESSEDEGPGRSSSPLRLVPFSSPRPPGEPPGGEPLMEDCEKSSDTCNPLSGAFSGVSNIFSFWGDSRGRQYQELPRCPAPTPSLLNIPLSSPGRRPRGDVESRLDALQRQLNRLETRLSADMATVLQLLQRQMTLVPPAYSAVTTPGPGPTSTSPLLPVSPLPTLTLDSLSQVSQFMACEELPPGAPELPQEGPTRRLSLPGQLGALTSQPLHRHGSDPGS", "assay": "hERG patch clamp", "assay_type": "cell-based", "settings": "at 10 μM", "experimental": "hERG assay was performed using a standard patch clamp protocol. AMES assay (bacterial reverse mutation assay) was performed according to protocol. […] In vitro and in vivo micronucleus assays were performed according to protocol."}, "[4]": {"target": "T3, VEGFR2 (Homo sapiens, UniProt P35968)", "T3 construct": "endogenous in cells; host or cells: HUVEC", "T3 sequence (P35968 20-1356)": "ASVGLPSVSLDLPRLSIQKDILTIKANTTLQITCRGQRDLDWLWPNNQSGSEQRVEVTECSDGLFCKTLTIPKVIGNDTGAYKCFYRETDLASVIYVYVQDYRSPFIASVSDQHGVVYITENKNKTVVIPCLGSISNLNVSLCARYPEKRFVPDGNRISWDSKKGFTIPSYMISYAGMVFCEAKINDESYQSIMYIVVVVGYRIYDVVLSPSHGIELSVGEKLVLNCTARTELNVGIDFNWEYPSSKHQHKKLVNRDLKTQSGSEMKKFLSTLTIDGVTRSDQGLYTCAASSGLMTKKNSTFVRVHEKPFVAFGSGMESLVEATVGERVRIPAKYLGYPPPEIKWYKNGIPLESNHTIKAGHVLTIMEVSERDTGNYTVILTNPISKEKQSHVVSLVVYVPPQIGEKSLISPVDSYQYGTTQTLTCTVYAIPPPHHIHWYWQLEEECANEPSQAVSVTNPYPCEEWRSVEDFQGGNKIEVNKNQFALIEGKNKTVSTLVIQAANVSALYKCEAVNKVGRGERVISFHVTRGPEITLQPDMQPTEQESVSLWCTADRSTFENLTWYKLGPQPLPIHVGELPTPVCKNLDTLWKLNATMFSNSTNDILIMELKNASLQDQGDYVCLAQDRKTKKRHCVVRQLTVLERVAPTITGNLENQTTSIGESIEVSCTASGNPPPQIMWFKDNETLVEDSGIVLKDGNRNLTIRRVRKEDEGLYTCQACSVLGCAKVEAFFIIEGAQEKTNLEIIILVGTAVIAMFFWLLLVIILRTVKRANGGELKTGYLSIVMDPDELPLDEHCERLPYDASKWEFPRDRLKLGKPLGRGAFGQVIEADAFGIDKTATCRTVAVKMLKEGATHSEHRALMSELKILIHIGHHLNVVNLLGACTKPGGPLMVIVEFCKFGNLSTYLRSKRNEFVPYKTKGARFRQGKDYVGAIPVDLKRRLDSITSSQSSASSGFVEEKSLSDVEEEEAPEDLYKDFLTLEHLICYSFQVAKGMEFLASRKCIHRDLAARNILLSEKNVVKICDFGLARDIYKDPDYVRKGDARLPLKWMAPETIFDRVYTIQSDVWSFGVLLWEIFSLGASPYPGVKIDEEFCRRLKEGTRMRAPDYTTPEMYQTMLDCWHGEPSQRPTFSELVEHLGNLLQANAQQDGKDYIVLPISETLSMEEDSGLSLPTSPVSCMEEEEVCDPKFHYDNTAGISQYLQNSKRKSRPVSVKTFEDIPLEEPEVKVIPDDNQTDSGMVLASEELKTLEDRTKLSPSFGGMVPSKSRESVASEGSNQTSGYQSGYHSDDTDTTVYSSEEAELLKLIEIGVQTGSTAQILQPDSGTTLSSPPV", "assay": "VEGFR2 autophosphorylation (Tyr1175) in VEGF-stimulated HUVECs", "assay_type": "cell-based", "settings": "20 ng/mL VEGF for 5 minutes, read-out: IC50, VEGFR2 autophosphorylation at Tyrosine residue 1175", "experimental": "Lysates of the various treatments were prepared and immunoblotted with antibodies specific for VEGFR2 phosphorylated at Tyr1175. […] Phospho-VEGFR2 signal was normalized to GAPDH as a loading control."}, "[5]": {"test_system": "RPMI 8226 cells", "assay": "RPMI 8226 multiple myeloma tumor model", "assay_type": "in vivo, Female Scid-beige mice", "experimental": "Female Scid-beige mice (17-20 g), n=8 per group, were implanted with 15×10^6 RPMI 8226 cells subcutaneously on the right flank with either vehicle (20% Trappsol, 10 mL/kg, PO, BID×14) or Compound 74 (100 mg/kg active drug, PO, BID×14). Test compounds were administered by oral gavage at the indicated doses and schedules when tumors reached 200±50 mm^3 in size."}, "[6]": {"assay": "Solubility determination", "assay_type": "physicochemical"}, "[7]": {"target": "Fyn (Homo sapiens, UniProt P06241)", "sequence (P06241 whole entry, species assumed)": "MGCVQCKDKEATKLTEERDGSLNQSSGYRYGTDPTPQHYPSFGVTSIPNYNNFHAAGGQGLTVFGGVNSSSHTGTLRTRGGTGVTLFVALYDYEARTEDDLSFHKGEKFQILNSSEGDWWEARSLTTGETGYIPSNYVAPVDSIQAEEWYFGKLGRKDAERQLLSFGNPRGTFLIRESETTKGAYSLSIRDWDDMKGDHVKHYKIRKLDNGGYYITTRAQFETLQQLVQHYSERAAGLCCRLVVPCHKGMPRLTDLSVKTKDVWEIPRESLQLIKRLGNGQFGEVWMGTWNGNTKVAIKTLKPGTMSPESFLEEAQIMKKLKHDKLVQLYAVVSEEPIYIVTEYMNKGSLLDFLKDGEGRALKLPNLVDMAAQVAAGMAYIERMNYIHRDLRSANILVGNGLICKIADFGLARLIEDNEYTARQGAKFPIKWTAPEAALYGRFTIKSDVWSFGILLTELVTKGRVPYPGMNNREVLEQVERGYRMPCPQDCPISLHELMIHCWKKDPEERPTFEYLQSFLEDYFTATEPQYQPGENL", "assay": "protein kinase IC50 determination (ATP at Km)", "assay_type": "biochemical", "settings": "ATP concentration at Km"}, "[8]": {"target": "Arg (Homo sapiens, UniProt P42684)", "sequence (P42684 whole entry)": "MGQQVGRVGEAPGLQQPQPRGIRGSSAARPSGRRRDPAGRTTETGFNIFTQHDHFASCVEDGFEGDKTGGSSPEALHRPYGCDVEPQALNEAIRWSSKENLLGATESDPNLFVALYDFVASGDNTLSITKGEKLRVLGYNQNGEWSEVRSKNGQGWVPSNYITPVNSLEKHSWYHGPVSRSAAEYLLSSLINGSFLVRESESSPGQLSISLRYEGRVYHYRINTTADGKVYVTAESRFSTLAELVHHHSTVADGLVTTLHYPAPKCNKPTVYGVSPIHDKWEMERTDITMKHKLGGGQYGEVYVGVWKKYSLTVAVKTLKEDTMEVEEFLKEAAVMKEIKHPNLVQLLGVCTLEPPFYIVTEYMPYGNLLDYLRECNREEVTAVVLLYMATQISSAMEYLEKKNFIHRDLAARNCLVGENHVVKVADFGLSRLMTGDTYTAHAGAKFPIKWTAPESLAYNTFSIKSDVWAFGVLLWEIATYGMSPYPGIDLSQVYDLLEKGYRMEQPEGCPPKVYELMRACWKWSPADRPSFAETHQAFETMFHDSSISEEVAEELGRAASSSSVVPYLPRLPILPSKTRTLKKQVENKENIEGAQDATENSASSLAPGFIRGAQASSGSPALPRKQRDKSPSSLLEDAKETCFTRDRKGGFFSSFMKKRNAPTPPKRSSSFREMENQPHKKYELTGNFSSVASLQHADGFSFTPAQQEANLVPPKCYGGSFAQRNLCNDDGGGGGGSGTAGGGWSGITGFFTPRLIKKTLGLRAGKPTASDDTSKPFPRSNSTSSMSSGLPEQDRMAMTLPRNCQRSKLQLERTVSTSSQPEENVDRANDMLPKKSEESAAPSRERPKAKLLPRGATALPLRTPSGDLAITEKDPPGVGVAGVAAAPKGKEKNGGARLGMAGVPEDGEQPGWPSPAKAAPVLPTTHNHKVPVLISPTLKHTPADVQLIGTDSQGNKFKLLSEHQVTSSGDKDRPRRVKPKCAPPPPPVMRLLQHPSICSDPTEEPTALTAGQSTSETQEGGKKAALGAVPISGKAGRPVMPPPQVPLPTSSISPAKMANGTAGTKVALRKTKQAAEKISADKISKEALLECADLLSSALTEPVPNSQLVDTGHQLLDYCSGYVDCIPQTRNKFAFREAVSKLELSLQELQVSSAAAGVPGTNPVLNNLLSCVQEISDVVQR", "assay": "protein kinase IC50 determination (ATP at Km)", "assay_type": "biochemical", "settings": "ATP concentration at Km"}, "[9]": {"target": "Lyn (Homo sapiens, UniProt P07948)", "sequence (P07948 whole entry, species assumed)": "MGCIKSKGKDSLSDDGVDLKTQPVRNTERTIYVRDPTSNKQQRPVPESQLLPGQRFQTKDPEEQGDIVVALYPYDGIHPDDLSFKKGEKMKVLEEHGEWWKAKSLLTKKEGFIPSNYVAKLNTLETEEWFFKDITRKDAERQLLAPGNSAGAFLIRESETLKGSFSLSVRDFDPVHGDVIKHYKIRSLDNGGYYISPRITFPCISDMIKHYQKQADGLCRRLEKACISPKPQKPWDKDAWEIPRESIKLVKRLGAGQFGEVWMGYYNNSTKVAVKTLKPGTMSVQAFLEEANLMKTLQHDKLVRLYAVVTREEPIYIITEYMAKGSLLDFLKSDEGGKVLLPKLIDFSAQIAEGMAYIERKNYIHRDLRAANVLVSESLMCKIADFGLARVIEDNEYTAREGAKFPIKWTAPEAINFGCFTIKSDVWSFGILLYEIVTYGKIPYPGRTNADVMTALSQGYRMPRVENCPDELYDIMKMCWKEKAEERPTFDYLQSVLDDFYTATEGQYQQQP", "assay": "protein kinase IC50 determination (ATP at Km)", "assay_type": "biochemical", "settings": "ATP concentration at Km"}, "[10]": {"target": "T4, CYP2C9 (Homo sapiens, UniProt P11712)", "T4 construct": "using pooled human liver microsomes (n=1); from tissue; host or cells: pooled human liver microsomes", "assay": "CYP inhibition assay (LC/MS, pooled human liver microsomes)", "assay_type": "in vitro ADME", "settings": "n=1"}, "[11]": {"test_system": "Erk and AKT", "assay": "phospho-Erk and phospho-AKT in Ang-1 stimulated HUVECs", "assay_type": "cell-based", "settings": "Homo sapiens, HUVEC, 10 min, 200 ng/mL Ang-1 for 10 minutes, read-out: IC50, downstream effectors Erk and AKT", "from_the_text": "Tie2 was then immunopurified (IP) and immunoblotted with anti-phosphotyrosine (pTyr) and anti-Tie2 antibodies to assess the degree of Tie2 autophosphorylation. Lysates were immunoblotted with anti-phospho-Erk and anti-phospho-AKT (Ser473) antibodies, respectively. Signals were quantified and normalized to GAPDH as a loading control. The results were shown in an immunoblot and a graph."}, "[12]": {"test_system": "TNF-α production in whole blood", "assay": "TNF-α production in LPS-treated whole blood (ELISA)", "assay_type": "cell-based", "settings": "whole blood treated with LPS, read-out: apparent IC50, inhibition of TNF-α production"}, "[13]": {"target": "T5, BCR-Abl (Homo sapiens, UniProt P00519)", "T5 construct": "BCR (N-terminal part, natural fusion partner of the Philadelphia-chromosome chimera); endogenous in cells; host or cells: K562; the other entry of the earlier key: BCR (P11274, Breakpoint cluster region protein)", "assay": "K562 immunoblot for p-Abl, pSTAT5, pCrkL", "assay_type": "cell-based", "settings": "K562 cells, 2 hours, 37-5000 nM"}, "[14]": {"test_system": "K562 cells", "assay": "K562 subcutaneous tumor model (BCR-Abl-driven tumors)", "assay_type": "in vivo, Female Scid-beige mice", "settings": "for % Regression / Complete responses: K562 tumors, PO ×7, dosed as Compound 74; for Complete responses: n=8", "experimental": "Test compounds were administered by oral gavage at the indicated doses and schedules when tumors reached 200±50 mm^3 in size. […] Tumor size and body weight were monitored throughout the study."}, "[15]": {"target": "Abl (T315I) (Homo sapiens, UniProt P00519, T315I)", "assay": "protein kinase IC50 determination (ATP at Km)", "assay_type": "biochemical", "settings": "ATP concentration at Km"}, "[16]": {"test_system": "RPMI 8226", "assay": "RPMI 8226 cell viability (CellTiter Blue)", "assay_type": "cell-based", "settings": "RPMI 8226, 72 hours", "experimental": "Cell viability was then measured using CellTiter Blue (Promega) to determine IC50 values for each compound (Table 8). […] MG-132 produced an IC50 that was within historical ranges of in-house testing (Table 8)."}}, "data": [{"smiles": "Cc1ccc(-n2nc(C(C)(C)C)cc2NC(=O)NCc2cc(F)ccc2Oc2ccc3c(cnn3CCO)c2)cc1", "note": "[Compound 72, 1-(3-tert-butyl-1-p-tolyl-1H-pyrazol-5-yl)-3-(5-fluoro-2-(1-(2-hydroxyethyl)-1H-indazol-5-yloxy)benzyl)urea]", "values": [{"measurement": "IC50", "setting": "[1]; substrate Midazolam", "value": "~8000", "unit": "nM"}, {"measurement": "IC50", "setting": "[1]; substrate Testosterone", "value": "~10000", "unit": "nM"}, {"measurement": "IC50", "setting": "[2]", "value": 25000, "unit": "nM"}, {"measurement": "hERG Patch Clamp Inhibition", "setting": "[3]", "value": 64, "unit": "% Inhibition at 10 μM"}, {"measurement": "IC50", "setting": "[4]", "value": 48, "unit": "nM"}, {"measurement": "body weight loss", "setting": "[5]; RPMI 8226 tumor-bearing Scid-beige mice, throughout treatment", "value": "less than 10%"}, {"measurement": "effect on tumor growth", "setting": "[5]; RPMI 8226 tumors, 100 mg/kg PO, BID×14, dosed as Compound 74", "value": "statistically significant effect on tumor growth"}, {"measurement": "% Tumor growth inhibition (TGI)", "setting": "[5]; RPMI 8226 tumors, 100 mg/kg active drug, PO, BID×14, dosed as Compound 74", "value": 67, "unit": "%"}, {"measurement": "solubility", "setting": "[6]; aqueous buffer, pH 3.0", "value": "< 5", "unit": "µg/mL"}, {"measurement": "solubility", "setting": "[6]; pH 7.4, aqueous buffer", "value": "< 5", "unit": "µg/mL"}, {"measurement": "IC50", "setting": "[7]", "value": 41, "unit": "nM"}, {"measurement": "IC50", "setting": "[8]", "value": 10, "unit": "nM"}, {"measurement": "IC50", "setting": "[9]", "value": 25, "unit": "nM"}, {"measurement": "IC50", "setting": "[10]", "value": 5000, "unit": "nM"}, {"measurement": "IC50", "setting": "[11]", "value": "< 11", "unit": "nM"}, {"measurement": "IC50", "setting": "[12]", "value": 30, "unit": "nM"}, {"measurement": "inhibition of autophosphorylation of BCR-Abl and phosphorylation of its substrates STAT5 and CrkL (immunoblot)", "setting": "[13]", "value": "capable of inhibiting"}, {"measurement": "body weight loss", "setting": "[14]; K562 tumor-bearing Scid-beige mice, throughout the course of treatment", "value": "less than 10%"}, {"measurement": "% Regression", "setting": "[14]; 30 mg/kg BID", "value": "Stasis"}, {"measurement": "Complete responses", "setting": "[14]; 30 mg/kg BID", "value": "0/8"}, {"measurement": "% Regression", "setting": "[14]; 100 mg/kg BID", "value": 93, "unit": "%"}, {"measurement": "Complete responses", "setting": "[14]; 100 mg/kg BID", "value": "5/8"}, {"measurement": "% Regression", "setting": "[14]; 100 mg/kg QD", "value": "Stasis"}, {"measurement": "Complete responses", "setting": "[14]; 100 mg/kg QD", "value": "0/8"}, {"measurement": "IC50", "setting": "[15]", "value": 68, "unit": "nM"}, {"measurement": "IC50", "setting": "[16]; Homo sapiens, read-out: Proliferation IC50", "value": "> 10000", "unit": "nM"}, {"measurement": "anti-proliferative effect", "setting": "[16]; over the indicated concentration range", "value": "not anti-proliferative"}]}]}
